The values that follow come from US20190153024A1, “NOVEL SALTS AND POLYMORPHS OF SCY-078” (priority 2015, published 2019).

Data set [1] in a line: Solid form stability on storage under ambient conditions. Format: physicochemical. To be noted: 2 days. Here is the method:
SCY-078 Citrate Type E: SCY-078 citrate Type E was obtained by drying a metastable solvate SCY-078 citrate Type R from MeOH/IPAc.
SCY-078 Citrate Type M: SCY-078 citrate Type M was obtained by storing SCY-078 citrate Type E in ambient conditions for 2 days. […] (onset temperatures) (FIG. 58). […] (FIG. 58).
SCY-078 Trifluoroacetate Type A is highly crystalline as shown in the XRPD (FIG. 85). […] The molar ratio of trifluoroacetate Type A (acid: freebase) was determined to be 1:1 via HPLC-IC confirmation.

The nature of data set [2]: Kinetic solubility of trifluoroacetate Types A and B and HCl Type I (alternative procedure: SGF, FaSSIF and FeSSIF alternative media, acetate pH 5.5, phosphate pH 6.0 alternative media). To be noted: for Form change: residual solid by XRPD. Here is the method:
An alternative media (“FaSSIF alternative media”) was used to study the trifluoroacetate salts (Type A and B) and the HCl Type I salt. More specifically, the media was prepared by weighing 0.17 g of sodium phosphate monobasic (NaH2PO4, anhydrous), 0.021 g of sodium hydroxide, and 0.31 g of sodium chloride into a 50-mL volumetric flask and was dissolve with approximately 48 mL of purified water. The pH was adjusted to exactly 6.5 using 1 M HCl or 1 M NaOH and diluted to volume with purified water. 0.11 g of SIF powder was then added, stirred and sonicated until all the powder was completely dissolved. The solution was equilibrated for 2 hours at RT before use. The solution can be stored at RT for 48 hours or 4° C. for 7 days and should be equilibrated to RT before use
An alternative media (“FeSSIF alternative media”) was used to study the trifluoroacetate salts (Type A and B) and the HCl Type I salt. More specifically, the media was prepared by transferring 0.41 mL of glacial acid and weighing 0.20 g of sodium hydroxide, 0.59 g of sodium chloride into a 50-mL volumetric flask. This was dissolved with approximately 48 mL of purified water. The pH was adjusted to exactly 5.0 using 1 M HCl or 1 M NaOH and diluted to volume with purified water. 0.56 g of SIF powder was added, stirred and sonicated until all the powder is completely dissolved. The solution can be stored at RT for 48 hours or 4° C. for 7 days and should be equilibrated to RT before use.
Acetate Buffer (pH 5.5) Preparation—The acetate buffer (pH 5.5) used for the trifluoroacetate salts (Type A and B) and the HCl Type I salt was prepared by placing 0.60 g sodium acetate (NaC2H3O2.3H2O) in a 100-mL volumetric flask, adding 3 mL of 2 M acetic acid solution, and then adding purified water to volume.
An alternative media (“phosphate (pH 6.0) alternative media”) was used to study the trifluoroacetate salts (Type A and B) and the HCl Type I salt. More specifically, the media was prepared by dissolving 2.72 g of 0.2 M monobasic potassium phosphate (KH2PO4) in purified water, and diluting with purified water t 100 mL. 0.8 g of 0.2 M sodium hydroxide in purified water was diluted with purified water to 100 mL. Then 50 mL of the 0.2 M monobasic potassium phosphate solution was placed in a 200-mL volumetric flask, 5.6 mL of 0.2 M sodium hydroxide solution was added, and then purified water was added to volume.
The trifluoroacetate salts (Type A and B) and the HCl Type I salt were tested using the following alternative procedure. First, 15 mg, 36 mg or 90 mg solid was weighted into a 4-mL plastic tube, and 3 mL of relevant media was added before leaving the suspension on a rolling incubator (25 r/min). For SCF, 90 mg of solid was used. For FaSSIF, acetate buffer (pH 5.5), and phosphate buffer (pH 6.0), 15 mg solid was used. For FeSSIF, 36 mg of solid was used. 1.0 mL aliquot of the suspension was sampled for centrifugation with the supernatant submitted for HPLC and pH measurement and solid for XRPD characterization at 1 hr, 4 hr and/or 24 hrs.
The solubility of trifluoroacetate Type A, Type B and HCl Type I was measured in SGF at ambient temperature. Approximately 90 mg of solid sample was weighted into a 4-mL centrifuge tube, and 3 mL of SGF buffer was added before leaving the suspension on a rolling incubator (25 r/min). 1.0 mL aliquot of the suspension was sampled for centrifugation (10000 rpm, 3 mins) the supernatant was analyzed by HPLC and pH measurement and solid by XRPD characterization at 1 hr, 4 hr and 24 hrs, respectively.
The solubility of trifluoroacetate Type A, Type B and hydrochloride Type I was measured in the FaSSIF alternative media at ambient temperature. Approximately 15 mg of solid sample was weighted into a 4-mL plastic tube, and 3 mL of the media was added before leaving the suspension on a rolling incubator (25 r/min).

A short description of data set [3]: Physical and chemical stability of trifluoroacetate Types A and B and HCl Type I for 1, 2, 4 and 8 weeks. Format: physicochemical. Here is the method:
High Power Liquid Chromatography (HPLC) Method—An Agilent 1260 HPLC with DAD detector was utilized to test solubility or to test purity and stability. […] System suitability was tested by injecting standard solutions five times in each sample sequence, and the relative standard deviation of the peak areas was less than 2%.
Physical and chemical stability evaluation of trifluoroacetate Type A, trifluoroacetate Type B, and HCl Type I was performed at 25° C./60% RH, 40° C./75% RH and 60° C. for 1, 2, 4 and 8 weeks. In the experiments, approximately 20 mg of solid was placed into a 1.5-mL glass vial. The vials were stored under 25° C./60% RH (uncapped), 40° C./75% RH (uncapped) and 60° C. (capped) conditions for 8 weeks. XRPD analysis was then employed to check the crystalline form of the solid, and HPLC was utilized to determine the purity profile at 1, 2, 4 and 8 weeks. […] The solid form change of trifluoroacetate Type A at 2 and 4 weeks was postulated to the air-exposure when the sample was taken out for XRPD characterization.

Data set [4] can be described thus: Form change of trifluoroacetate on storage at varying relative humidity. The data set is classed as physicochemical. To be noted: storage for 24 hours. How it is done:
To investigate transition relationship of trifluoroacetate Type A and Type B, both samples were stored in chambers with varying relative humidity to monitor any form change. […] Varying temperature (VT)-XRPD of trifluoroacetate Type A was performed.

[5] abbreviates: 25° C./60% RH (uncapped), 1 week.
[6] abbreviates: 25° C./60% RH (uncapped), 2 weeks.
The mark [7] stands for this setting: 25° C./60% RH (uncapped), 4 weeks.
The mark [8] stands for this setting: 25° C./60% RH (uncapped), 8 weeks.
The mark [9] stands for this setting: 40° C./75% RH (uncapped), 1 week.
Setting [10] is: 40° C./75% RH (uncapped), 2 weeks.
[11] abbreviates: 40° C./75% RH (uncapped), 4 weeks.
The mark [12] stands for this setting: 40° C./75% RH (uncapped), 8 weeks.

As to `CC(C)[C@@H](C)[C@@]1(C)CC[C@]2(C)[C@H]3CC[C@@H]4[C@@]5(COC[C@]4(C)[C@@H](OC[C@](C)(N)C(C)(C)C)[C@H](n4ncnc4-c4ccncc4)C5)C3=CC[C@@]2(C)[C@@H]1C(=O)O.O=C(O)C(F)(F)F` [SCY-078 Trifluoroacetate Type A], the “solid form stability at ambient conditions” value in data set [1] is given as “converted to Type B”. For the same molecule, the “form change of residual solid in FaSSIF alternative media” value in data set [2] (FaSSIF alternative media, ambient temperature, listed as trifluoroacetate Type A) is “no form change was observed”. For the same molecule, the “form change of residual solid in FeSSIF alternative media” value in data set [2] (FeSSIF alternative media, ambient temperature, listed as Trifluoroacetate Type A) is recorded as “converted to Type B”. The “form change of residual solid in SGF” value in data set [2] (SGF, ambient temperature, listed as trifluoroacetate Type A) was “no form change was observed”. Moreover, the “solubility in acetate buffer (comparison)” value in data set [2] (acetate buffer pH 5.5, ambient temperature, 4 hr and 24 hrs) is listed as “higher solubility”. Further, the “form change of residual solid in acetate buffer” value in data set [2] (acetate buffer pH 5.5, ambient temperature, listed as Trifluoroacetate Type A) is “no form change was observed”. For the same molecule, the “solubility trend in FeSSIF alternative media” value in data set [2] (after an hour) is reported as “decreasing solubility”. Moreover, the “solubility in phosphate (pH 6.0) alternative media (comparison)” value in data set [2] (phosphate (pH 6.0) alternative media, ambient temperature, 4 hr and 24 hrs) is on record as “lower solubility”. The “form change of residual solid in phosphate (pH 6.0) alternative media” value in data set [2] (phosphate (pH 6.0) alternative media, ambient temperature, listed as Trifluoroacetate Type A) was “firstly converted to Type B at 4 hrs and back to Type A at 24 hrs”. Also, the “physical and chemical stability” value in data set [3] (25° C./60% RH, 40° C./75% RH and 60° C., 8 weeks, listed as trifluoroacetate Type A) was “physically and chemically stable”.
Regarding `CC(C)[C@@H](C)[C@@]1(C)CC[C@]2(C)[C@H]3CC[C@@H]4[C@@]5(COC[C@]4(C)[C@@H](OC[C@](C)(N)C(C)(C)C)[C@H](n4ncnc4-c4ccncc4)C5)C3=CC[C@@]2(C)[C@@H]1C(=O)O.O=C(O)CC(O)(CC(=O)O)C(=O)O` [SCY-078 citrate Type E], the “solid form stability at ambient conditions” value in data set [1] is recorded as “not stable”.
On to `CC(C)[C@@H](C)[C@@]1(C)CC[C@]2(C)[C@H]3CC[C@@H]4[C@@]5(COC[C@]4(C)[C@@H](OC[C@](C)(N)C(C)(C)C)[C@H](n4ncnc4-c4ccncc4)C5)C3=CC[C@@]2(C)[C@@H]1C(=O)O.O=C(O)C(F)(F)F` [TFA Type B], for which the “Form by XRPD after storage” value in data set [4] (Relativity Humidity 0%) is on record as “Type B”; in data set [4] (Relativity Humidity 22%) it was “Type B”; in data set [4] (Relativity Humidity 97%) it was “Type A”. The Form change entry in data set [2] (FeSSIF alternative media, 1 hr) is reported as “No”; in data set [2] (FeSSIF alternative media, 4 hrs), “No”; in data set [2] (FeSSIF alternative media, 24 hrs), “No”; in data set [2] (phosphate (pH 6.0) alternative media, 4 hrs) it was “No”. Also, the HPLC purity in data set [3] (setting [5]), in data set [3] (setting [6]), in data set [3] (setting [7]), in data set [3] (setting [8]), in data set [3] (setting [9]) and in data set [3] (setting [10]) was 99.9% throughout. Also, the HPLC purity in data set [3] (setting [11]) amounted to 99.9%; in data set [3] (setting [12]) it was 99.9%; in data set [3] (60° C. (capped), 1 week) it was 99.9%; in data set [3] (60° C. (capped), 2 weeks) it was 99.9%; in data set [3] (60° C. (capped), 4 weeks), 99.9%; in data set [3] (60° C. (capped), 8 weeks), 99.9%. The Solid form entry in data set [3] (setting [5]), in data set [3] (setting [6]), in data set [3] (setting [7]), in data set [3] (setting [8]), in data set [3] (setting [9]) and in data set [3] (setting [10]) was “Type A” each time. In addition, the Solid form entry in data set [3] (setting [11]) is given as “Type A”; in data set [3] (setting [12]), “Type A”; in data set [3] (60° C. (capped), 1 week), “Type A”; in data set [3] (60° C. (capped), 2 weeks), “Type A”; in data set [3] (60° C. (capped), 4 weeks), “Type A”; in data set [3] (60° C. (capped), 8 weeks) it was “Type A”. Besides, the “Initial HPLC purity” value in data set [3] (Initial) came to 99.9%.
